{"source": "patent US20240122878A1", "about": "(priority 2021, published 2024)", "key": {"[1]": {"assay": "in vitro", "conditions": "37° C., 10 μM; for half-life / half-life at 10 μM: simulated gi fluid", "description": "Gastrointestinal solution stability was performed along with the Caco-2 cell permeability assay study."}, "[2]": {"assay": "in vitro", "conditions": "human; for recovery: Caco-2, Percent Recovery, 10 μM", "from_the_text": "(§1) Based on historical data obtained in the experimental model, the mean permeability value (Papp) for each reference compound was expected to fall within the predetermined specifications.\n(§2) Fluorescein was used as the zero-permeability marker in all Caco-2 cell assays as a quality control for the integrity of the Caco-2 monolayer. […] Well-defined criteria (known or readily available to those of ordinary skill in the art) have been established for the acceptance of fluorescein results to validate monolayer integrity.\n(§3) Testing concentrations for the in vitro permeability assessment were determined at 1%, 10%, and 100% of the highest strength dissolved in 250 mL. […]"}, "[3]": {"test_system": "Caco-2 monolayer", "assay": "in vitro", "conditions": "for Percent Recovery, Rep. 1-3: 10 μM", "from_the_text": "as §1, §2, §3"}, "[4]": {"conditions": "Caco-2, pH 6.5, Permeability, Mean"}, "[5]": {"conditions": "Caco-2, pH 6.5, Permeability, Rep. 1-3"}, "[6]": {"conditions": "Caco-2, pH 6.5, Permeability, Mean, A-B, Caco-2, pH 6.5/7.4, 10 μM"}, "[7]": {"conditions": "Caco-2, pH 6.5, Permeability, Rep. 1-3, A-B, Caco-2, pH 6.5/7.4, 10 μM"}, "[8]": {"conditions": "Caco-2, pH 6.5, Permeability, Rep. 1-3, B-A, Caco-2, pH 6.5/7.4, 10 μM"}}, "note": "Several values for one entry are separate records, joined by “and”; a condition that tells them apart may be missing. Equal entries are not always repeated."}
{"smiles": "CC[C@H]1OC(=O)[C@H](C)[C@@H](O[C@H]2C[C@@](C)(OC)[C@@H](O)[C@H](C)O2)[C@H](C)[C@@H](O[C@@H]2O[C@H](C)C[C@H](N(C)C)[C@H]2O)[C@](C)(O)C[C@@H](C)C(=O)[C@H](C)[C@@H](O)[C@]1(C)O", "note": "[Erythromycin, reference compound]", "values": [{"measurement": "Half-Life, Rep. 1-3", "setting": "[1]; simulated gastric fluid", "result": 6.5, "unit": "min"}, {"measurement": "half-life", "setting": "[1]; Mean, simulated gastric fluid", "result": 6, "unit": "min"}, {"measurement": "half-life", "setting": "[1]; Rep. 1-3, simulated gastric fluid", "result": 6.4, "unit": "min"}]}
{"smiles": "COc1cc2c(c(OC)c1OC)-c1ccc(OC)c(=O)cc1[C@@H](NC(C)=O)CC2", "note": "[Colchicine]", "values": [{"measurement": "recovery", "setting": "[2]; Mean, B-A", "result": 91, "unit": "%"}, {"measurement": "recovery", "setting": "[2]; Rep. 1-3, A-B", "result": 88, "unit": "%"}, {"measurement": "recovery", "setting": "[2]; Rep. 1-3, B-A", "result": 88, "unit": "%"}, {"measurement": "Papp A→B", "setting": "[2]; [4]", "result": 0.3, "unit": "×10⁻⁶ cm/s"}, {"measurement": "Papp B→A", "setting": "[2]; [4]", "result": 7.3, "unit": "×10⁻⁶ cm/s"}, {"measurement": "Papp A→B", "setting": "[2]; [5]", "result": 0.31, "unit": "×10⁻⁶ cm/s"}, {"measurement": "Papp B→A", "setting": "[2]; [5]", "result": 7.69, "unit": "×10⁻⁶ cm/s"}, {"measurement": "Percent Recovery, Rep. 1-3", "setting": "[3]; A-B", "result": 78, "unit": "%"}, {"measurement": "Percent Recovery, Rep. 1-3", "setting": "[3]; B-A", "result": 94, "unit": "%"}]}
{"smiles": "O=C(O)CCCc1ccc(N(CCCl)CCCl)cc1", "note": "[Chlorambucil, reference compound]", "values": [{"measurement": "half-life at 10 μM", "setting": "[1]; Mean, simulated intestinal fluid", "result": 26, "unit": "min"}, {"measurement": "half-life at 10 μM", "setting": "[1]; Rep. 1-3, simulated intestinal fluid", "result": 26.2, "unit": "min"}, {"measurement": "Half-Life, Rep. 1-3", "setting": "[1]; simulated intestinal fluid", "result": 25.7, "unit": "min"}]}
{"smiles": "CNC(=C[N+](=O)[O-])NCCSCc1ccc(CN(C)C)o1", "note": "[Ranitidine]", "values": [{"measurement": "recovery", "setting": "[2]; Mean, A-B", "result": 101, "unit": "%"}, {"measurement": "recovery", "setting": "[2]; Rep. 1-3, A-B", "result": 100, "unit": "%"}, {"measurement": "Papp A→B", "setting": "[2]; [4]", "result": 0.7, "unit": "×10⁻⁶ cm/s"}, {"measurement": "Papp B→A", "setting": "[2]; [4]", "result": 2.4, "unit": "×10⁻⁶ cm/s"}, {"measurement": "Papp A→B", "setting": "[2]; [5]", "result": 0.8, "unit": "×10⁻⁶ cm/s"}, {"measurement": "Papp B→A", "setting": "[2]; [5]", "result": 2.54, "unit": "×10⁻⁶ cm/s"}, {"measurement": "Percent Recovery, Rep. 1-3", "setting": "[3]; A-B", "result": 99, "unit": "%"}, {"measurement": "Percent Recovery, Rep. 1-3", "setting": "[3]; B-A", "result": "96% and 92%"}]}
{"smiles": "CC(CCc1ccccc1)NCC(O)c1ccc(O)c(C(N)=O)c1", "note": "(stereo not shown) [Labetalol]", "values": [{"measurement": "recovery", "setting": "[2]; Mean, A-B", "result": 117, "unit": "%"}, {"measurement": "recovery", "setting": "[2]; Rep. 1-3, A-B", "result": 118, "unit": "%"}, {"measurement": "Papp A→B", "setting": "[2]; [6]", "result": 19.6, "unit": "×10⁻⁶ cm/s"}, {"measurement": "Papp B→A", "setting": "[2]; Caco-2, pH 6.5, Permeability, Mean, B-A, Caco-2, pH 6.5/7.4, 10 μM", "result": 49.3, "unit": "×10⁻⁶ cm/s"}, {"measurement": "Papp A→B", "setting": "[2]; [7]", "result": 20.2, "unit": "×10⁻⁶ cm/s"}, {"measurement": "Papp B→A", "setting": "[2]; [8]", "result": 48.7, "unit": "×10⁻⁶ cm/s"}]}
{"smiles": "CC(C)NCC(O)COc1cccc2ccccc12", "note": "(stereo not shown) [Propranolol]", "values": [{"measurement": "recovery", "setting": "[2]; Mean, A-B", "result": 104, "unit": "%"}, {"measurement": "recovery", "setting": "[2]; Mean, B-A", "result": 108, "unit": "%"}, {"measurement": "recovery", "setting": "[2]; Rep. 1-3, A-B", "result": 106, "unit": "%"}, {"measurement": "recovery", "setting": "[2]; Rep. 1-3, B-A", "result": 106, "unit": "%"}, {"measurement": "Papp B→A", "setting": "[2]; [4]", "result": 47.5, "unit": "×10⁻⁶ cm/s"}, {"measurement": "Papp A→B", "setting": "[2]; [6]", "result": 40.9, "unit": "×10⁻⁶ cm/s"}, {"measurement": "Papp B→A", "setting": "[2]; [5]", "result": 48.1, "unit": "×10⁻⁶ cm/s"}, {"measurement": "Papp A→B", "setting": "[2]; [7]", "result": 45.4, "unit": "×10⁻⁶ cm/s"}, {"measurement": "Papp B→A at 10 μM", "setting": "[2]; [8]", "result": 48.8, "unit": "×10⁻⁶ cm/s"}, {"measurement": "Percent Recovery, Rep. 1-3", "setting": "[3]; A-B", "result": 99, "unit": "%"}, {"measurement": "Permeability, Rep. 1-3", "setting": "[3]; A-B, Caco-2, pH 6.5/7.4, 10 μM", "result": "40.35 10^−6 cm/s and 36.94 10^−6 cm/s"}, {"measurement": "Percent Recovery, Rep. 1-3", "setting": "[3]; B-A", "result": "115% and 102%"}, {"measurement": "Permeability, Rep. 1-3", "setting": "[3]; human, Caco-2, pH 6.5", "result": "45.79 10^−6 cm/s"}]}
{"smiles": "CC(C)[N+](C)(CCOC(=O)C1c2ccccc2Oc2ccccc21)C(C)C", "note": "[Propanthaline, reference compound]", "values": [{"measurement": "Half-Life, Mean", "setting": "[1]; simulated gastric fluid", "result": ">60", "unit": "min"}, {"measurement": "Half-Life, Rep. 1-3", "setting": "[1]; simulated gastric fluid", "result": ">60", "unit": "min"}, {"measurement": "Half-Life, Mean", "setting": "[1]; simulated intestinal fluid", "result": ">180", "unit": "min"}, {"measurement": "Half-Life, Rep. 1-3", "setting": "[1]; simulated intestinal fluid", "result": "253.1 min and 251.2 min and 227.0 min"}]}
